# Test system: mutated form of PCSK7 3′-UTR
# Test: Luciferase reporter assay, miRNA target site-deleted PCSK7 3′-UTR, HEK293T cells
# Format: cell-based, human
# Source text: The interactions between the miRNAs and their probable targets on PCSK7 were explored by cloning the potential target regions in psiCHECK-2™ (Promega, USA), a luciferase reporter vector. In psiCHECK-2™, hRluc, the Renilla luciferase gene, is located upstream of the target regions of interest cloned into the psiCHECK-2™ vector downstream of the Renilla gene. The region corresponding to the 3′-UTR of PCSK7 (926-nt sequences in length) that constituted the predicted miRNA response elements was PCR-amplified and cloned downstream of the Renilla luciferase gene in the psiCHECK-2™ vector (Promega, USA). For the confirmation of whether miRNA response elements (miRNA target sites) on the 3′-UTR of PCSK7 were active and had direct interactions with the miRNAs, different mutants (plasmids) were constructed via splicing by over-hang-extension (SOEing) PCR. For miR-125a-5p and miR-143-3p, each of which has two miRNA response elements on PCSK7 3′-UTR, three different mutant constructs were built. Two constructs were made by deleting a putative miRNA target site, and the third one was made by omitting both putative miRNA target sites in the 3′-UTR sequence of PCSK7. In the miR-409-3p mutant construct, a putative miRNA target site was deleted from the 3′-UTR sequence.
# The HEK293T cells were co-transfected through the application of the wild-type psiCHECK-2, the wild-type PCSK7 3′-UTR, the mutant PCSK7 3′-UTR, and the miR-overexpressing vectors so that the direct interactions of the nominated miRNAs with PCSK7 3′-UTR could be investigated. In brief, 150 ng of the wild-type or mutated 3′-UTR constructs and 300 ng of the miRNA-expressing vectors were co-transfected in HEK293T-cultured 48-well plates using FuGENE™ (Invitrogen, USA). Additionally, the psiCHECK-2 and pEGFP-C1 mock vectors were transfected and utilized as controls for luciferase assay and transfection, respectively. Transfection efficiency was monitored by fluorescent microscopy (Nikon TE2000S, Japan) 36 hours following the procedure.
# The PsiCHECK-2 reporter construct plasmid contained the Renilla luciferase gene upstream of PCSK7 3′-UTR and an independent firefly luciferase gene as an internal control for normalization. Forty-eight hours after HEK293T co-transfection, the luciferase reporter assay was carried out employing the Dual-Luciferase Reporter Assay System (Promega, USA) with a luminometer (Titertek-Berthold, Germany) in accordance with the manufacturer's protocol. Each sample was performed in triplicate, and the experiment was repeated at least three biological times. In short, a lysis buffer was added to each well after the removal of the media of the cell. Then, LARII Reagent was added, and after 20 minutes, the firefly luciferase activity was measured as a control. Afterward, Renilla activity was determined using Stop & Glo Reagent. The relative luciferase activity was calculated using the following formula: ΔFold Activity of Luciferase (Renilla/Firefly)=Average Renilla/Firefly from Samples A/B.
# A luciferase reporter assay further confirmed that miR-125a-5p, miR-143-3p, and miR-409-3p directly targeted the 3′-UTR of the PCSK7 transcript since the negative regulatory effect was lost upon the deletion of the miRNA target sites (miR-125a-5p, miR-143-3p, and miR-409-3p) on the 3′-UTR of the PCSK7 reporter plasmid (FIGS. 28A-B). In this regard, three different mutated miR plasmids were constructed for both miR-125a-5p and miR-143-3p. Single-target sites of each miRNA were omitted individually in two separate plasmids, and the two putative binding sites of the miRNAs were deleted in the other plasmid.
substance,measurement,setting,value
"miR-125a-5p: miRNA targeting PCSK7 3′-UTR and exons 14 and 15, overexpressed from pEGFP-C1 precursor vector (UCCCUGAGACCCUUUAACCUGUGA; miRNA expressed from a pEGFP-C1 precursor vector, further chemistry not given here)",relative luciferase activity,"Mut-a, deletion of the first target site",still decreased
same,relative luciferase activity,"Mut-a,b, deletion of both miRNA target sites",failed to significantly decrease
same,relative luciferase activity,"Mut-b, deletion of the second target site",still decreased
